Measured values: article PMC11565046, “Rational design of 2H-chromene-based antiphytovirals that inhibit virion assembly by outcompeting virus capsid-RNA interactions” (iScience, 2024)
Read-outs that look alike come from different tables or passages of the source.

Tests used:
PVY [1] = experiment: Inactivating activity against PVY, half-leaf method on Chenopodium amaranticolor; type: in vivo, potato virus Y; conditions: Potato virus Y, in Chenopodium amaranticolor
Experimental: (§1) According to previous reports,[46] PVY was infested in Nicotiana tabacum K326, and PVY was harvested and purified after showing severe infection symptoms on the leaves. The literature-guided protocol was followed to assess the curative, prophylactic, and […] potential of the target compounds under investigation.[15]
Target compound solution (1,000 μg/mL) and 2 × virus solution were combined in equal quantities and incubated for 30 min. Evenly distribute emery onto the leaf blades, and apply the mixture of virus and compound solution onto the right side of C. amaranticolor leaf blades. Following this, an identical quantity of a 1× virus solution was applied to the untreated side of the leaf. Following a duration of 1.5 h, the emery residue present on the leaf surface was removed using a rinsing process utilizing water. The plants were incubated within a controlled greenhouse environment, maintaining a consistent temperature of 25°C. After 5−7 days, they proceeded to statistics the number of necrotic spots on the leaves. For each chemical, triplicate experiments were undertaken, and the average percentage of inhibition was subsequently determined.

PVY [2] = experiment: Protective activity against PVY, half-leaf method on Chenopodium amaranticolor; type: in vivo; conditions: Potato virus Y, in Chenopodium amaranticolor; 500 μg/mL; Chenopodium amaranticolor leaves; average of three replicates
Experimental: as §1
A 500 μg/mL solution of the targeted compound was delicately applied to one side of C. amaranticolor leaves, while the other side was treated with a 1% Tween 80 aqueous solution. The plants were positioned in a greenhouse set at 25°C. Following a 24 h period, the entire leaf surface was inoculated with PVY by uniformly distributing 200–300 mesh emery. After 1.5 h, the emery was washed off with water, and the plants were returned to the greenhouse. After 5–7 days, the number of necrotic spots was tallied, with the assessment based on the greenhouse population. Each compound was tested in triplicate, and the average inhibition rate was subsequently calculated.

PVY [3] = experiment: Curative activity against PVY, half-leaf method on Chenopodium amaranticolor; type: in vivo; conditions: Potato virus Y, in Chenopodium amaranticolor; 500 μg/mL; Chenopodium amaranticolor leaves; average of three replicates
From the text: as §1
To assess the curative effectiveness against PVY, a uniform layer of 200–300 mesh emery was applied to the leaves of C. amaranticolor, followed by rubbing with a virus solution. For 1.5 h, then the emery was washed off with water. After the leaves naturally dried, a 500 μg/mL solution of the test compound was carefully applied to one side of the leaf, while the opposite side received a 1% Tween 80 solution as a control. The plants were subsequently incubated in a greenhouse maintained at 25°C. After 5−7 days, the presence of necrotic spots on the leaves was recorded, with each compound tested on three replicate plants. The average inhibition rate was determined by analyzing the data from these replications.

[4] = Chenopodium amaranticolor leaves, read-out: EC50 for inactivating activity
[5] = inactivating activity, Table S1, read-out: Experimental pEC50 (converted)

Row | SMILES | melting point [°C] | EC50 (PVY [1]; [4]) [µg/mL] | EC50 (PVY [1]; [5]) [µM] | inhibition at 500 µg/mL (PVY [2]) [%] | inhibition at 500 µg/mL (PVY [3]) [%]
1 | COc1ccc(S(=O)(=O)Nc2ccc(/N=C/c3ccc4c(c3O)C=CC(C)(C)O4)cc2)cc1 [Compound C1, (E) -N-(4-(((5-hydroxy-2,2-dimethyl-2H-chromen-6-yl)methylene)amino)phenyl) -4-methoxybenzenesulfonamide] | 139 to 141 | 441 ± 5.2 | 951 |  | 
2 | CC1(C)C=Cc2c(ccc(/C=N/c3ccc(NS(=O)(=O)c4ccc(C(F)(F)F)cc4)cc3)c2O)O1 [Compound C2] | 132 to 134 | 255.7 ± 0.72 | 509 |  | 
3 | CCCCCCCCS(=O)(=O)Nc1ccc(/N=C/c2ccc3c(c2O)C=CC(C)(C)O3)cc1 [Compound C3] | 94 to 96 | 605 ± 12.2 | 1290 |  | 
4 | CC1(C)C=Cc2c(ccc(/C=N/c3ccc(NS(=O)(=O)c4cccs4)cc3)c2O)O1 [Compound C4] | 148 to 150 | 667 ± 20.1 | 1520 |  | 
5 | CC1(C)C=Cc2c(ccc(/C=N/c3ccc(NS(=O)(=O)c4ccc(F)cc4)cc3)c2O)O1 [Compound C5] | 144 to 146 | 165 ± 8.7 | 366 |  | 
6 | CC1(C)C=Cc2c(ccc(/C=N/c3ccc(NS(=O)(=O)c4cccc(F)c4)cc3)c2O)O1 [Compound C7] | 164 to 166 | 100 ± 5.7 | 222 | 60 to 70 | 
7 | CC1(C)C=Cc2c(ccc(/C=N/c3ccc(NS(=O)(=O)c4ccccc4F)cc3)c2O)O1 [Compound C8] | 175 to 177 | 369 ± 9.9 | 667 |  | 
8 | CC1(C)C=Cc2c(ccc(/C=N/c3ccc(NS(=O)(=O)c4cccnc4)cc3)c2O)O1 [Compound C9] | 150 to 152 | 310 ± 8.6 | 713 |  | 
9 | CC1(C)C=Cc2c(ccc(/C=N/c3ccc(NS(=O)(=O)c4ccc(Br)s4)cc3)c2O)O1 [Compound C10] | 140 to 142 | 492 ± 13.3 | 951 | 60 to 70 | 60 to 70
10 | CC1(C)C=Cc2c(ccc(/C=N/c3ccc(NS(=O)(=O)c4cccc(C#N)c4)cc3)c2O)O1 [Compound C11] | 152 to 154 | 703 ± 25.3 | 1530 |  | 
11 | CC1(C)C=Cc2c(ccc(/C=N/c3ccc(NS(=O)(=O)c4ccc([N+](=O)[O-])cc4)cc3)c2O)O1 [Compound C12] | 164 to 166 | 400 ± 7.5 | 836 |  | 
12 | CC1(C)C=Cc2c(ccc(/C=N/c3ccc(NS(=O)(=O)C4CC4)cc3)c2O)O1 [Compound C13] | 147 to 149 | 531 ± 20.7 | 1330 |  | 
13 | CC1(C)C=Cc2c(ccc(/C=N/c3ccc(NS(=O)(=O)c4cc(Cl)ccc4Cl)cc3)c2O)O1 [Compound C14] | 148 to 150 | 751 ± 19.4 | 1500 |  | 
14 | CC1(C)C=Cc2c(ccc(/C=N/c3ccc(NS(=O)(=O)c4cc(F)ccc4F)cc3)c2O)O1 [Compound C15] | 180 to 182 | 903 ± 14.3 | 1920 |  | 
15 | CC1(C)C=Cc2c(ccc(/C=N/c3ccc(NS(=O)(=O)c4cccc(Br)c4)cc3)c2O)O1 [Compound C16] | 161 to 163 | 688 ± 17.2 | 1350 | 60 to 70 | 60 to 70
16 | CC1(C)C=Cc2c(ccc(/C=N/c3ccc(NS(=O)(=O)c4ccccc4)cc3)c2O)O1 [Compound C17] | 134 to 136 | 168 ± 4.8 | 388 |  | 
17 | CCc1ccc(S(=O)(=O)Nc2ccc(/N=C/c3ccc4c(c3O)C=CC(C)(C)O4)cc2)cc1 [Compound C18] | 121 to 123 | 202 ± 3.8 | 438 |  | 
18 | Cc1cc(C)c(S(=O)(=O)Nc2ccc(/N=C/c3ccc4c(c3O)C=CC(C)(C)O4)cc2)c(C)c1 [Compound C19] | 137 to 139 | 492 ± 11.2 | 1040 |  | 
19 | CC1(C)C=Cc2c(ccc(/C=N/c3ccc(NS(=O)(=O)c4ccc(C(C)(C)C)cc4)cc3)c2O)O1 [Compound C20] | 142 to 144 | 1000 | 2050 |  | 
20 | CC(=O)Nc1ccc(S(=O)(=O)Nc2ccc(/N=C/c3ccc4c(c3O)C=CC(C)(C)O4)cc2)cc1 [Compound C21] | 161 to 163 | 1020 | 2080 |  | 
21 | CC1(C)C=Cc2c(ccc(/C=N/c3ccc(NS(=O)(=O)c4ccccc4C(F)(F)F)cc3)c2O)O1 [Compound C22] | 130 to 132 | 587 ± 9.9 | 1170 |  | 
22 | CC1(C)C=Cc2c(ccc(/C=N/c3ccc(NS(=O)(=O)c4cc(Cl)cc(Cl)c4)cc3)c2O)O1 [Compound C23] | 211 to 213 | 871 ± 17.3 | 1730 |  | 
23 | CC1(C)C=Cc2c(ccc(/C=N/c3ccc(NS(=O)(=O)c4ccc(Cl)s4)cc3)c2O)O1 [Compound C24] | 141 to 143 | 754 ± 10.3 | 1590 | 60 to 70 | 60 to 70
24 | CC1(C)C=Cc2c(ccc(/C=N/c3ccc(NS(=O)(=O)c4ccccc4Cl)cc3)c2O)O1 [Compound C25] | 166 to 168 | 244 ± 10.2 | 521 |  | 

The next lines start with results.

Row | melting point [°C] | EC50 (PVY [1]; [4]) [µg/mL] | EC50 (PVY [1]; [5]) [µM] | SMILES | inhibition at 500 µg/mL (PVY [2]) [%] | inhibition at 500 µg/mL (PVY [3]) [%]
25 | 207 to 209 | 100 ± 4.5 | 213 | CC1(C)C=Cc2c(ccc(/C=N/c3ccc(NS(=O)(=O)c4cc(F)cc(F)c4)cc3)c2O)O1 [Compound C26] | 60 to 70 | 60 to 70
26 | 128 to 130 | 834 ± 18.3 | 1610 | CC1(C)C=Cc2c(ccc(/C=N/c3ccc(NS(=O)(=O)c4ccc(OC(F)(F)F)cc4)cc3)c2O)O1 [Compound C30] |  | 
27 | 154 to 156 | 976 ± 20 | 1950 | CC1(C)C=Cc2c(ccc(/C=N/c3ccc(NS(=O)(=O)c4ccc(Cl)cc4Cl)cc3)c2O)O1 [Compound C31] |  | 
28 | 170 to 172 | 139 ± 3.2 | 272 | CC1(C)C=Cc2c(ccc(/C=N/c3ccc(NS(=O)(=O)c4ccccc4Br)cc3)c2O)O1 [Compound C33] |  | 
29 | 123 to 125 | 803 ± 12.3 | 1600 | CC1(C)C=Cc2c(ccc(/C=N/c3ccc(NS(=O)(=O)c4cccc(C(F)(F)F)c4)cc3)c2O)O1 [Compound C35] |  | 
30 | 195 to 197 | 397.1 ± 2.3 | 877 | Cc1noc(C)c1S(=O)(=O)Nc1ccc(/N=C/c2ccc3c(c2O)C=CC(C)(C)O3)cc1 [Compound C39] |  | 
31 | 186 to 188 | 204 ± 7.1 | 402 | CC1(C)C=Cc2c(ccc(C=Nc3ccc(NS(=O)(=O)CC45CCC(CC4=O)C5(C)C)cc3)c2O)O1 (stereo not drawn) [Compound C40] |  | 
32 | 115 to 117 | 781 ± 15.3 | 1460 | CC(C)=CCCC1(C)C=Cc2c(ccc(/C=N/c3ccc(NS(=O)(=O)c4ccc(Cl)cc4)cc3)c2O)O1 (stereo not drawn) [Compound C41] |  | 
33 | 97 to 99 | 512 ± 11 | 944 | CC(C)=CCCC1(C)C=Cc2c(ccc(/C=N/c3ccc(NS(=O)(=O)c4ccc(Cl)s4)cc3)c2O)O1 (stereo not drawn) [Compound C43] |  | 
34 | 84 to 86 | 882 ± 17.3 | 1710 | CC(C)=CCCC1(C)C=Cc2c(ccc(/C=N/c3ccc(NS(=O)(=O)c4cccc(C)c4)cc3)c2O)O1 (stereo not drawn) [Compound C44] |  | 
35 | 113 to 115 | 516 ± 9 | 991 | CC(C)=CCCC1(C)C=Cc2c(ccc(/C=N/c3ccc(NS(=O)(=O)c4cccc(F)c4)cc3)c2O)O1 (stereo not drawn) [Compound C45] |  | 
36 | 130 to 132 | 522 ± 8.1 | 916 | CC(C)=CCCC1(C)C=Cc2c(ccc(/C=N/c3ccc(NS(=O)(=O)c4ccc(C(F)(F)F)cc4)cc3)c2O)O1 (stereo not drawn) [Compound C46] |  | 
37 | 80 to 82 | 630 ± 11.2 | 1170 | CC(C)=CCCC1(C)C=Cc2c(ccc(/C=N/c3ccc(NS(=O)(=O)c4c(F)cccc4F)cc3)c2O)O1 (stereo not drawn) [Compound C47] |  | 
38 | 138 to 140 | 717 ± 17.8 | 1330 | CC(C)=CCCC1(C)C=Cc2c(ccc(/C=N/c3ccc(NS(=O)(=O)c4cc(F)cc(F)c4)cc3)c2O)O1 (stereo not drawn) [Compound C48] |  | 
39 | 75 to 77 | 553 ± 9.3 | 944 | CC(C)=CCCC1(C)C=Cc2c(ccc(/C=N/c3ccc(NS(=O)(=O)c4ccc(Br)s4)cc3)c2O)O1 (stereo not drawn) [Compound C49] |  | 
